# According to a melting point compilation (Tetko et al.):
row,Structure (SMILES),melting point [°C]
1,Cc1nn(C)c2ncc(C(=O)O)c(Cl)c12,269
2,CSc1nc(N)nc(C(C)C)n1,127 to 130
3,CN(C)c1ccc(C(Br)=NNc2ccc([N+](=O)[O-])cc2)cc1,188
4,O=C(Nc1cccc([N+](=O)[O-])c1)Nc1cccc([N+](=O)[O-])c1,234
5,CCOC(=O)C(C(=O)OCC)C(Br)c1cc(C(Br)C(C(=O)OCC)C(=O)OCC)c([N+](=O)[O-])cc1[N+](=O)[O-] (configuration not stated),130
6,CCOC(=O)c1ccc2c(c1)OCO2,18.5
7,CC(C)(C)c1cc(N)c(O)c(C(C)(C)C)c1,161
8,CN(C)C(=O)Cl,-33
9,C/C=C(C)/C=C/C=C(C)C,-35.4
10,O=Cc1cccn1-c1ccc(I)cc1,98 to 100
11,CCCCNC(=O)CC#N,54 to 55
12,c1cnc(N2CCN(Cc3ccc4c(c3)OCO4)CC2)nc1,98
13,CC(=O)Nc1ccc(S(=O)(=O)Cl)cc1Cl,143 to 145
14,CCCCCC=O,-56
15,CCOC(=O)c1c(NS(=O)(=O)c2ccc(Cl)cc2)nn(-c2ccc([N+](=O)[O-])cc2)c1N,200
16,O=C(c1ccccc1)c1cc(C(=O)c2ccccc2)c([N+](=O)[O-])cc1[N+](=O)[O-],174
17,N#Cc1c(NC(=O)c2ccccc2)sc2c1CCCC2,110
18,Cc1c(C)c(CCl)c(C)c(CCl)c1C,117
19,O=C(Nc1ccc(Cl)cc1)c1cccnc1Cl,148 to 149
20,Nc1c(Cl)cncc1Cl,161
21,OC1CCSCC1,50 to 51
22,CCOC(=O)c1c[nH]c2c(OC(F)(F)F)cccc2c1=O,235 to 240
23,CNC(N)=S,120
24,O=S1CCC1,31.5
25,O=C(Nc1ccc2cc(OC(=O)c3ccccc3)ccc2c1)c1ccccc1,224 to 229
26,CC(=O)Oc1ccc2c(c1)CCC1C2CCC2(C)C(=O)C(OC(C)=O)CC12 (configuration not stated),180

row,Structure (SMILES),melting point [°C]
1,CCCCCCCCc1ccc(/N=N/c2ccc(OC(=O)CC)cc2)cc1,60 to 62
2,CC(=O)c1[nH]c(C)cc1C,118 to 121
3,O=P(c1ccccc1)(c1ccccc1)C1C=C(c2ccc(Br)cc2)OC(c2ccc(Br)cc2)=C1,193 to 194
4,CCCCNCC(=O)Nc1c(C)cccc1Cl,45.5
5,Cn1cnc(C(=O)Oc2c(F)c(F)c(F)c(F)c2F)c1,131 to 132
6,CC1=CCC=C(C)CCC=C(C)CCC(C(C)C)C=C1 (configuration not stated),59 to 61
7,O=C1C=C(NCc2cccnc2)C(=O)c2ccccc21,209
8,O=C(Cl)OCC(Cl)(Cl)Cl,1
9,Cn1c(CO)cnc1S,220 to 222
10,O=C(O)c1ccc(OC(=O)c2ccccc2)cc1,89
11,O=C(C=Cc1ccc(-c2ccccc2)o1)c1ccco1,99 to 101
12,O=S(O)c1ccc(Cl)cc1,99
13,C=CCC(CC)(CC)C(N)=O,75
14,Nc1ccc(C(=O)Oc2ccccc2)c(O)c1,153
15,O=C(O)C1CCCC1,4
16,CC1CS(=O)(=O)CCN1N=Cc1ccc([N+](=O)[O-])o1 (configuration not stated),181
17,CCCS(=O)CCC,22.5
18,Cc1ccc2c(c1Cl)C(=O)c1ccccc1C2=O,170
19,CC(O)CCc1ccc(CCC(C)O)cc1 (configuration not stated),42 to 46
20,O=C(C1=NOC2C(=O)N(c3ccc(F)cc3)C(=O)C12)c1ccc2ccccc2c1 (configuration not stated),193
21,O=c1cc[nH]c(=O)o1,156
22,Cc1nc2cc(Cl)ccc2o1,54 to 57
23,Cn1c(N)c(C=O)c(=O)n(C)c1=O,199 to 201
24,CCC(O)c1cc(C)ccc1O (configuration not stated),143
25,NC(=O)OCC(COC(N)=O)c1ccccc1,151
26,Cc1cc(C)c(C2(C)CC(C(=NNC(N)=S)c3cc4ccccc4o3)C2)c(C)c1 (configuration not stated),258 to 259

row,Structure (SMILES),melting point [°C]
1,Nc1nn2c(C(F)(F)F)cc(=O)[nH]c2c1/N=N/c1ccccc1,283
2,NS(=O)(=O)c1c(F)cc(F)cc1Br,126
3,CN(C)C(=O)NC1CCCCCCC1,138
4,O=C(O)CONC(=O)c1ccccc1,140
5,O=C1C(C(O)c2ccc(O)cc2)C(C(F)(F)F)=NN1c1ccccc1 (configuration not stated),211
6,CCCCCCCCN1CCCC1=O,-25
7,CC(C)(C)N(NC(=O)c1ccccc1)C(=O)c1ccccc1,178
8,Cc1ccc(S(=O)(=O)NN=Cc2coc(C=Cc3ccccc3)n2)cc1,177 to 179
9,CC1CN1 (configuration not stated),-65
10,CCCCCCCl,-94
11,NC(=O)[C@@H]1CC=CC[C@H]1N (relative stereo),163 to 167
12,CCCCOc1ccc(NC(=O)C(F)(F)C(F)(F)C(F)(F)C(F)(F)C(F)(F)C(F)(F)C(F)(F)C(F)(F)F)cc1,136 to 138
13,BrCc1cccc(-n2cccc2)c1,54 to 55
14,CC(C)c1cc(C(C)C)c(S(=O)(=O)Cl)c(C(C)C)c1,96
15,N=c1sc(C(=O)c2cccs2)nn1-c1[nH]nc(-c2ccccc2)c1Br,102 to 103
16,C=C/C=C(C)/C=N/Nc1ccc([N+](=O)[O-])cc1[N+](=O)[O-],171
17,Cc1cc(C)c(CC(=O)c2oc3ccccc3c2NC(=O)Cc2ccccc2)c(C)c1,156 to 157
18,COC(=O)c1cnc(NN)nc1C(F)(F)F,132 to 134
19,O=c1[nH]c(=O)n(C2CC(O)C(CO)O2)cc1Br (configuration not stated),192
20,N[C@@H](CS)C(=O)O,240
21,CCOC(=O)C(C)Oc1ccc(Oc2cnc3cc(Cl)ccc3n2)cc1 (configuration not stated),92
22,FC(F)(F)c1ccc(-c2nnc(S)o2)cc1,155 to 156
23,COc1cccc(OC)c1C(=O)O,187 to 190
24,Cc1cccc(C)c1NC(=O)C=CC(=O)O,169
25,COc1cccc2c1C(=O)c1c(O)c3c(c(O)c1C2=O)CC(O)(C(C)=O)CC3OC1CC(N)C(O)C(C)O1 (configuration not stated),208
26,CC(C)(C)OC(=O)N1CCN(c2ccc(I)cc2)CC1,150 to 151

row,Structure (SMILES),melting point [°C]
1,Cc1cc2nc3c(=O)[nH]c(=O)nc-3n(CC(O)C(O)C(O)CO)c2cc1C (configuration not stated),290
2,O=C(O)c1c2c(nc3ccc(F)cc13)CCCCC2,289 to 291
3,O=C(O)c1cccc(N2CCCC2)n1,134 to 136
4,FC(F)(F)c1cncc(C(F)(F)F)c1,37
5,NC(=O)c1ccc(-c2ccccn2)s1,197 to 199
6,c1ccc(-c2cnco2)cc1,37 to 39
7,Cn1nc(C(=O)Cl)cc1-c1ccccc1,80 to 82
8,CN(C)c1ccc(C=C2C(=O)NN=C2c2c(O)c3ccccc3n(C)c2=O)cc1,262
9,OCCCC(Cl)(Cl)CO,40 to 42
10,Nc1ccc(Cl)cc1I,40 to 42
11,Brc1cnc(N2CCCCC2)nc1OCc1ccccc1,107
12,Cc1ccc(S(=O)(=O)N(CCO)CCO)cc1,94 to 100
13,CCCCCCCC(N)=O,108
14,c1ccc2c(c1)-c1ccccc1-2,114 to 115
15,N#Cc1cccc(N2CCCCC2)c1,133 to 136
16,CC(C)CCNCCC(C)C,-44
17,N#Cc1ccc(O)cc1F,125
18,FC(F)(F)C(F)(Cl)C(Cl)(Cl)C(F)(F)F (configuration not stated),4
19,COC1=C(Br)C(=O)C2(C)CCC1C2(C)C (configuration not stated),104
20,CN(C)C(=S)SC(=S)N(C)C,106 to 110
21,Cc1ccsc1,-69
22,CC12CCC(C(=O)O)(OC1=O)C2(C)C (configuration not stated),200
23,Cc1ccc(S(=O)(=O)n2ccc(C(=O)O)c2)cc1,202 to 206
24,COc1cc(CCNC(=O)Cc2ccc(OC)c(OCc3ccccc3)c2)ccc1OCc1ccccc1,140
25,O=C(Nc1ccc(Br)cc1)C(C(F)(F)F)C(F)(F)F,186
26,COc1ccc(Oc2ncccc2[N+](=O)[O-])cc1,95 to 101

row,Structure (SMILES),melting point [°C]
1,O=Cc1ccc2c(c1[N+](=O)[O-])C(=O)c1c(Cl)c(Cl)c(Cl)c(Cl)c1C2=O,265 to 268
2,CCCCCCCCCCCCCCCC(=O)Oc1ccc([N+](=O)[O-])cc1,66
3,O=C(O)CSc1cccc2cccc(Cl)c12,156
4,Cc1cccc(Br)c1[N+](=O)[O-],26 to 30
5,COc1ccc(-c2csc(/C(C#N)=C/c3ccccc3Cl)n2)cc1,222
6,CC1CC(C)(C)CC1=O (configuration not stated),-25.6
7,CC1(C)OC(C(O)CO)C(C(O)CO)O1 (configuration not stated),87
8,CC12CCC(OC=O)CC1CCC1C2CCC2(C)C1CCC2(O)C#Cc1ccccc1 (configuration not stated),205
9,CC(C)(C)N=C=O,85.5
10,CCC(OC(N)=O)C1CCCCC1 (configuration not stated),128
11,CCCCCCC(=O)CCCC,2
12,CC(Oc1ccc2ccccc2c1)C(=O)Nc1ccccc1 (configuration not stated),128
13,CCCCCCCCCCCCCCCC(=O)Oc1ccc(N=Cc2cccnc2)cc1,87.6
14,N#Cc1c(F)cc(Br)cc1F,81
15,O=[N+]([O-])c1ccc(O)c2ccccc12,166
16,Cc1nc(C2CCN(C(=O)OC(C)(C)C)CC2)sc1C(=O)O,124 to 128
17,CCOC(=O)c1ccc(O)c(OC)c1,44
18,CN1CCc2cc3c(cc2C1C1OC(=O)c2c1ccc1c2OCO1)OCO3 (configuration not stated),194
19,Clc1ccc(-c2c(Cl)cc(Cl)c(Cl)c2Cl)c(Cl)c1,73
20,CN1CCc2cc3c(cc2C(=O)Cc2ccc4c(c2C1)OCO4)OCO3,208
21,CC(=NO)c1ccc2c(c1)CC(C)O2 (configuration not stated),83 to 85
22,CCCCCCOc1ccc(O)cc1,46
23,COC(=O)C=Cc1ccc(O)c(OC)c1,64
